Measurements: ChEMBL document CHEMBL3885881, “DrugMatrix”

Species on record: Rattus norvegicus
Experiment: DrugMatrix - Regimen: Daily Repeat
Assay type: toxicity, organism-based, Sprague-Dawley
Parameters: regimen Daily Repeat, gender Male, age 6-8 weeks
Conditions: in vivo, po, route oral GAVAGE, vehicle .5 % CMC; for ABSOLUTE BASOPHIL / ABSOLUTE EOSINOPHIL / ABSOLUTE LYMPHOCYTE / ABSOLUTE MONOCYTE / ABSOLUTE SEGMENTED NEUTROPHIL / BASOPHIL / EOSINOPHIL / ERYTHROCYTE COUNT / HEMATOCRIT / HEMOGLOBIN / LEUKOCYTE COUNT / LYMPHOCYTE / MEAN CORPUSCULAR HEMOGLOBIN / MEAN CORPUSCULAR HEMOGLOBIN CONCENTRATION / MEAN CORPUSCULAR VOLUME / MONOCYTE / NEUTROPHIL / NUCLEATED RED BLOOD CELLS / PLATELET COUNT: tissue Blood; for ALANINE AMINOTRANSFERASE / ALBUMIN / ALKALINE PHOSPHATASE / ASPARTATE AMINOTRANSFERASE / BLOOD UREA NITROGEN / CARBON DIOXIDE / CHLORIDE / CHOLESTEROL / CREATINE PHOSPHOKINASE / CREATININE / GLUCOSE / LACTATE DEHYDROGENASE / LIPASE / PHOSPHORUS / POTASSIUM / SODIUM / TOTAL BILIRUBIN / TOTAL PROTEIN / URIC ACID: tissue Plasma
[1] = 60 mg/kg, 72 h, dose level Low, time 3 day
[2] = 60 mg/kg, 120 h, dose level Low, time 5 day
[3] = 1200 mg/kg, 72 h, dose level High, time 3 day
[4] = 1200 mg/kg, 120 h, dose level High, time 5 day

CCS(=O)(=O)CCn1c([N+](=O)[O-])cnc1C [TINIDAZOLE]
ABSOLUTE BASOPHIL [1]: 0 CELLS/uL | ABSOLUTE EOSINOPHIL [1]: 339 CELLS/uL | ABSOLUTE LYMPHOCYTE [1]: 11000.67 CELLS/uL | ABSOLUTE MONOCYTE [1]: 171.33 CELLS/uL | ABSOLUTE SEGMENTED NEUTROPHIL [1]: 989 CELLS/uL | BASOPHIL [1]: 0% | EOSINOPHIL [1]: 2.67% | ERYTHROCYTE COUNT [1]: 5.79 x10E6/uL | HEMATOCRIT [1]: 34.93% | HEMOGLOBIN [1]: 13.13 G/DL | LEUKOCYTE COUNT [1]: 12.5 x10E3/uL | LYMPHOCYTE [1]: 88% | MEAN CORPUSCULAR HEMOGLOBIN [1]: 22.67 pg | MEAN CORPUSCULAR HEMOGLOBIN CONCENTRATION [1]: 37.67 G/DL | MEAN CORPUSCULAR VOLUME [1]: 60.2 fL | MONOCYTE [1]: 1.33% | NEUTROPHIL [1]: 8% | NUCLEATED RED BLOOD CELLS [1]: 0 /100WBC | PLATELET COUNT [1]: 1415.67 x10E3/uL | ALANINE AMINOTRANSFERASE [1]: 51.33 u/L | ALBUMIN [1]: 4.33 G/DL | ALKALINE PHOSPHATASE [1]: 361.33 u/L | ASPARTATE AMINOTRANSFERASE [1]: 96.67 u/L | BLOOD UREA NITROGEN [1]: 14.67 mg/dL | CARBON DIOXIDE [1]: 26 mmol/L | CHLORIDE [1]: 105 MEQ/L | CHOLESTEROL [1]: 71 mg/dL | CREATINE PHOSPHOKINASE [1]: 896 u/L | CREATININE [1]: 0.17 mg/dL | GLUCOSE [1]: 168 mg/dL | LACTATE DEHYDROGENASE [1]: 108.33 u/L | LIPASE [1]: 9 u/L | PHOSPHORUS [1]: 14.2 mg/dL | POTASSIUM [1]: 6.01 MEQ/L | SODIUM [1]: 145.6 MEQ/L | TOTAL BILIRUBIN [1]: 0.23 mg/dL | TOTAL PROTEIN [1]: 5.87 G/DL | URIC ACID [1]: 2.47 mg/dL | ABSOLUTE BASOPHIL [2]: 0 CELLS/uL | ABSOLUTE EOSINOPHIL [2]: 103.33 CELLS/uL | ABSOLUTE LYMPHOCYTE [2]: 13904.67 CELLS/uL | ABSOLUTE MONOCYTE [2]: 205.33 CELLS/uL | ABSOLUTE SEGMENTED NEUTROPHIL [2]: 1020 CELLS/uL | BASOPHIL [2]: 0% | EOSINOPHIL [2]: 0.67% | ERYTHROCYTE COUNT [2]: 5.73 x10E6/uL | HEMATOCRIT [2]: 35.5% | HEMOGLOBIN [2]: 13.43 G/DL | LEUKOCYTE COUNT [2]: 15.23 x10E3/uL | LYMPHOCYTE [2]: 91.33% | MEAN CORPUSCULAR HEMOGLOBIN [2]: 23.43 pg | MEAN CORPUSCULAR HEMOGLOBIN CONCENTRATION [2]: 37.83 G/DL | MEAN CORPUSCULAR VOLUME [2]: 61.97 fL | MONOCYTE [2]: 1.33% | NEUTROPHIL [2]: 6.67% | NUCLEATED RED BLOOD CELLS [2]: 0.33 /100WBC | PLATELET COUNT [2]: 1361.67 x10E3/uL | ALANINE AMINOTRANSFERASE [2]: 48 u/L | ALBUMIN [2]: 4.23 G/DL | ALKALINE PHOSPHATASE [2]: 407 u/L | ASPARTATE AMINOTRANSFERASE [2]: 87 u/L | BLOOD UREA NITROGEN [2]: 18 mg/dL | CARBON DIOXIDE [2]: 26.33 mmol/L | CHLORIDE [2]: 107 MEQ/L | CHOLESTEROL [2]: 76.33 mg/dL | CREATINE PHOSPHOKINASE [2]: 445.33 u/L | CREATININE [2]: 0.21 mg/dL | GLUCOSE [2]: 165.33 mg/dL | LACTATE DEHYDROGENASE [2]: 155 u/L | LIPASE [2]: 9 u/L | PHOSPHORUS [2]: 13.63 mg/dL | POTASSIUM [2]: 6.07 MEQ/L | SODIUM [2]: 145.9 MEQ/L | TOTAL BILIRUBIN [2]: 0.17 mg/dL | TOTAL PROTEIN [2]: 6.5 G/DL | URIC ACID [2]: 2.07 mg/dL | ABSOLUTE BASOPHIL [3]: 0 CELLS/uL | ABSOLUTE EOSINOPHIL [3]: 0 CELLS/uL | ABSOLUTE LYMPHOCYTE [3]: 8834.67 CELLS/uL | ABSOLUTE MONOCYTE [3]: 232.67 CELLS/uL | ABSOLUTE SEGMENTED NEUTROPHIL [3]: 799.33 CELLS/uL | BASOPHIL [3]: 0% | EOSINOPHIL [3]: 0% | ERYTHROCYTE COUNT [3]: 5.53 x10E6/uL | HEMATOCRIT [3]: 35.63% | HEMOGLOBIN [3]: 13.37 G/DL | LEUKOCYTE COUNT [3]: 9.87 x10E3/uL | LYMPHOCYTE [3]: 89.67% | MEAN CORPUSCULAR HEMOGLOBIN [3]: 24.17 pg | MEAN CORPUSCULAR HEMOGLOBIN CONCENTRATION [3]: 37.57 G/DL | MEAN CORPUSCULAR VOLUME [3]: 64.4 fL | MONOCYTE [3]: 2.33% | NEUTROPHIL [3]: 8% | NUCLEATED RED BLOOD CELLS [3]: 0 /100WBC | PLATELET COUNT [3]: 1043.67 x10E3/uL | ALANINE AMINOTRANSFERASE [3]: 47 u/L | ALBUMIN [3]: 4.5 G/DL | ALKALINE PHOSPHATASE [3]: 362.67 u/L | ASPARTATE AMINOTRANSFERASE [3]: 80.33 u/L | BLOOD UREA NITROGEN [3]: 15.33 mg/dL | CARBON DIOXIDE [3]: 28 mmol/L | CHLORIDE [3]: 106 MEQ/L | CHOLESTEROL [3]: 89.33 mg/dL | CREATINE PHOSPHOKINASE [3]: 226.67 u/L | CREATININE [3]: 0.24 mg/dL | GLUCOSE [3]: 123 mg/dL | LACTATE DEHYDROGENASE [3]: 186 u/L | LIPASE [3]: 9.33 u/L | PHOSPHORUS [3]: 11.47 mg/dL | POTASSIUM [3]: 6.78 MEQ/L | SODIUM [3]: 150.07 MEQ/L | TOTAL BILIRUBIN [3]: 0.3 mg/dL | TOTAL PROTEIN [3]: 6.13 G/DL | URIC ACID [3]: 1 mg/dL | ABSOLUTE BASOPHIL [4]: 0 CELLS/uL | ABSOLUTE EOSINOPHIL [4]: 57.67 CELLS/uL | ABSOLUTE LYMPHOCYTE [4]: 15287.67 CELLS/uL | ABSOLUTE MONOCYTE [4]: 50.33 CELLS/uL | ABSOLUTE SEGMENTED NEUTROPHIL [4]: 2437.67 CELLS/uL | BASOPHIL [4]: 0% | EOSINOPHIL [4]: 0.33% | ERYTHROCYTE COUNT [4]: 5.86 x10E6/uL | HEMATOCRIT [4]: 35.6% | HEMOGLOBIN [4]: 13.2 G/DL | LEUKOCYTE COUNT [4]: 17.83 x10E3/uL | LYMPHOCYTE [4]: 85% | MEAN CORPUSCULAR HEMOGLOBIN [4]: 22.53 pg | MEAN CORPUSCULAR HEMOGLOBIN CONCENTRATION [4]: 37.07 G/DL | MEAN CORPUSCULAR VOLUME [4]: 60.8 fL | MONOCYTE [4]: 0.33% | NEUTROPHIL [4]: 14.33% | NUCLEATED RED BLOOD CELLS [4]: 0 /100WBC | PLATELET COUNT [4]: 1437 x10E3/uL | ALANINE AMINOTRANSFERASE [4]: 43.33 u/L | ALBUMIN [4]: 4.3 G/DL | ALKALINE PHOSPHATASE [4]: 276.33 u/L | ASPARTATE AMINOTRANSFERASE [4]: 79.67 u/L | BLOOD UREA NITROGEN [4]: 19.33 mg/dL | CARBON DIOXIDE [4]: 25 mmol/L | CHLORIDE [4]: 105 MEQ/L | CHOLESTEROL [4]: 76.67 mg/dL | CREATINE PHOSPHOKINASE [4]: 212.67 u/L | CREATININE [4]: 0.29 mg/dL | GLUCOSE [4]: 152 mg/dL | LACTATE DEHYDROGENASE [4]: 226.67 u/L | LIPASE [4]: 8.67 u/L | PHOSPHORUS [4]: 12.57 mg/dL | POTASSIUM [4]: 6.85 MEQ/L | SODIUM [4]: 146.2 MEQ/L | TOTAL BILIRUBIN [4]: 0.13 mg/dL | TOTAL PROTEIN [4]: 6.7 G/DL | URIC ACID [4]: 2.17 mg/dL
